# According to publication PMC10872706 (The FEBS journal, 2023):
# Several values for one entry are separate records, joined by “and”; a condition that tells them apart may be missing. Equal values may be shown once. Read-outs that look alike come from different tables or passages of the source.
# What was measured:
# [1] = target: T1, E. coli PdxI (Escherichia coli, UniProt P25906); assay: Differential scanning fluorimetry; assay type: binding; settings: for effect on thermal stability (Tm) when added alone: vitamers 100 μM, NAD+ or NADH 400 μM; for effect on thermal stability (Tm) when added alone / Kd: 2 μM PdxI; for increase of thermal stability: increasing concentrations of dinucleotide; for Kd: read-out: apparent dissociation constant, from changes of Tm as a function of NADP(H) concentration, 20 mM KPi pH 7.3; for further change of Tm on adding vitamer to pre-incubated PdxI and dinucleotide: 200 μM vitamer, PL added to PdxI-NAD(P)+, PN to PdxI-NAD(P)H
# T1 sequence (P25906 1-286): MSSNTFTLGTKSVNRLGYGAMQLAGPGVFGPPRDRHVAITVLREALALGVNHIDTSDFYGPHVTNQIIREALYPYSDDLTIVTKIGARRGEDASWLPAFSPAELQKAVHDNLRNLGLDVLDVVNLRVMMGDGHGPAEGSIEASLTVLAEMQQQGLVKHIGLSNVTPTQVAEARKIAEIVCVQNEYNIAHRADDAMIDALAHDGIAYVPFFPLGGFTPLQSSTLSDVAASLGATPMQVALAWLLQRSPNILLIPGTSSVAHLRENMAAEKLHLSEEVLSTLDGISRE
# [2] = target: T1, E. coli PdxI; assay: Reactions catalysed by PdxI, discontinuous assay with HPLC quantification; assay type: biochemical
# [3] = target: T1, E. coli PdxI; assay: Spectrophotometric kinetic characterisation of PdxI; settings: for type of product inhibition with respect to NADPH: NADPH varied, PL fixed at 38 μM
# [4] = target: T1, E. coli PdxI; assay: Isothermal titration calorimetry; assay type: binding
# [5] = test system: E. coli BW25113 wild type; assay type: cell-based, Escherichia coli
# [6] = test system: E. coli BW25113 cells; assay: RT-qPCR relative expression of vitamin B6 metabolism genes; assay type: cell-based, Escherichia coli; settings: 0.1 mM vitamer in M9, relative to M9 = 100%; for Expression level of pdxI: (*) P < 0.01
# [7] = test system: E. coli BW25113 pdxI knock out strain; assay type: cell-based, Escherichia coli; settings: for beneficial effect of low concentrations on growth: low concentrations in M9 medium
# [8] = test system: E. coli BW25113 pdxI knock out strain; assay type: cell-based, Escherichia coli
# [9] = test system: E. coli BW25113 wild type; assay: B6 vitamer levels in cell extracts by HPLC, wild type; assay type: cell-based, Escherichia coli
# [10] = test system: E. coli pdxK, pdxY, pdxKY knock out strains; assay type: cell-based, Escherichia coli; settings: M9 medium, all these strains
# [11] = test system: PdxK; settings: cited from earlier work
# [12] = target: T1, E. coli PdxI; settings: in vitro; cited from earlier work
# [13] = ligand alone titrated into PdxI
# [14] = ligand alone titrated into PdxI (binary complex)
# [15] = ligand alone titrated into PdxI, 20°C, pH 7.4, NB = non-binding ligand
# [16] = PL added to pre-incubated mixture of PdxI and NADPH (ternary complex)
# [17] = medium supplemented with 1.5 mM PL
# [18] = medium supplemented with 0.1 mM PN
smiles,measurement,setting,value
NC(=O)C1=CN([C@@H]2O[C@H](COP(=O)(O)OP(=O)(O)OC[C@H]3O[C@@H](n4cnc5c(N)ncnc54)[C@H](O)[C@@H]3O)[C@@H](O)[C@H]2O)C=CC1 [NADH],effect on thermal stability (Tm) when added alone,[1],no effect
same,reaction rate with PL and NADH relative to that with NADPH,"[2]; 200 μM PL, 400 μM dinucleotide",10 times slower
"NC(=O)C1=CN([C@@H]2O[C@H](COP(=O)(O)OP(=O)(O)OC[C@H]3O[C@@H](n4cnc5c(N)ncnc54)[C@H](OP(=O)(O)O)[C@@H]3O)[C@@H](O)[C@H]2O)C=CC1 [NADPH, reduced nicotinamide adenine dinucleotide phosphate]",Km,"[3]; PL reduction to PN by NADPH, 37 °C, 20 mM KPi pH 7.3, 0.05 μM PdxI",12 ± 4 µM
same,increase of thermal stability,[1],up to 9 °C
same,Kd,[1],81 ± 16 µM
same,N value,[4]; [13],1.13 ± 0.05
same,ΔH,[4]; [14],-12.40 ± 0.14 kJ/mol
same,ΔS,[4]; [14],−18 ± 1 J mol^−1/deg
same,Kd,[4]; [15],4.2 ± 0.35 µM
"NC(=O)c1ccc[n+]([C@@H]2O[C@H](COP(=O)([O-])OP(=O)(O)OC[C@H]3O[C@@H](n4cnc5c(N)ncnc54)[C@H](OP(=O)(O)O)[C@@H]3O)[C@@H](O)[C@H]2O)c1 [NADP^+, oxidised nicotinamide adenine dinucleotide phosphate]",type of product inhibition with respect to NADPH,[3],competitive inhibitor
same,increase of thermal stability,[1],up to 9 °C
same,Kd,[1],856 ± 490 µM
same,N value,[4]; [13],0.99 ± 0.09
same,ΔH,[4]; [14],-21.6 ± 0.56 kJ/mol
same,ΔS,[4]; [14],−54 ± 2 J mol^−1/deg
same,Kd,[4]; [15],46.3 ± 1.97 µM
NC(=O)c1ccc[n+]([C@@H]2O[C@H](COP(=O)([O-])OP(=O)(O)OC[C@H]3O[C@@H](n4cnc5c(N)ncnc54)[C@H](O)[C@@H]3O)[C@@H](O)[C@H]2O)c1 [NAD^+],effect on thermal stability (Tm) when added alone,[1],no effect
"Cc1ncc(CO)c(C=O)c1O [PL, pyridoxal]",effect on growth,[5]; up to 0.1 mM in M9 medium,beneficial
same,effect on growth,[5]; up to 1 mM in M9 medium,abolish this beneficial effect
same,further change of Tm on adding vitamer to pre-incubated PdxI and dinucleotide,[1],did not further increase Tm
same,effect on thermal stability (Tm) when added alone,[1],no effect
same,Kd,[4],0.024 ± 0.01 µM
same,N value,[4]; PL added to pre-incubated 1:1 mixture of PdxI and NADPH,0.61 and 0.61 ± 0.02
same,ΔH,[4]; [16],-3.7 ± 0.15 kJ/mol
same,ΔS,[4]; [16],22 ± 1 J mol^−1/deg
same,Expression level of pdxB,[6],97%
same,Expression level of pdxH,[6],110%
same,Expression level of pdxJ,[6],86%
same,Expression level of pdxK,[6],105%
same,Expression level of pdxY,[6],118%
same,Expression level of ybhA,[6],110%
same,Expression level of pdxI,[6],134% (*)
same,effect on bacterial growth,[7]; 1 mM in M9 medium,toxicity
same,effect on bacterial growth,[7]; 2 mM in M9 medium,nearly arrested
same,beneficial effect of low concentrations on growth,[7],not visible
same,increase of PL levels,[8]; [17],about 3400 fold
same,PL converted into PN at equilibrium,"[2]; 200 μM PL, 400 μM NADH, 0.2 μM PdxI",98.3 ± 2.6%
same,PL converted into PN at equilibrium,"[2]; 200 μM PL, 400 μM NADPH, 0.2 μM PdxI",96 ± 1.7%
same,increase of PL levels,[9]; [17],about 800 fold
same,concentration at which PL toxicity is observed,[10],≥ 1400 µM
same,kcat of PdxK,[11]; PL as substrate,2.3 s⁻¹
same,Km,[11]; read-out: KM for PL of PdxK,100 µM
"Cc1ncc(COP(=O)(O)O)c(C=O)c1O [PLP, Pyridoxal 5’-phosphate]",Km,[3]; PLP reduction to PNP by NADPH,> 1200 µM
same,effect on thermal stability (Tm) when added alone,[1],no effect
same,conversion of PLP into PNP,"[2]; 200 μM PLP, 400 μM NADPH, 0.2 μM PdxI",apparently complete
same,activity of PdxI with the substrate,[12],no detectable activity
"Cc1ncc(CO)c(CN)c1O [PM, pyridoxamine]",conversion of PM to PL,[2]; NADP+ as electron acceptor,could not be detected
same,activity of PdxI with the substrate,[12],no detectable activity
"Cc1ncc(CO)c(CO)c1O [PN, pyridoxine]",effect on growth,[5]; up to 1 mM in M9 medium,beneficial effect
same,type of product inhibition with respect to NADPH,[3],mixed inhibition
same,further change of Tm on adding vitamer to pre-incubated PdxI and dinucleotide,[1],did not further increase Tm
same,effect on thermal stability (Tm) when added alone,[1],no effect
same,Expression level of pdxB,[6],103%
same,Expression level of pdxH,[6],95%
same,Expression level of pdxJ,[6],88%
same,Expression level of pdxK,[6],107%
same,Expression level of pdxY,[6],115%
same,Expression level of ybhA,[6],108%
same,Expression level of pdxI,[6],98%
same,beneficial effect of low concentrations on growth,[7],not visible
same,rise of PLP levels,[8]; [18],1.8 fold
same,PN converted to PL (reverse reaction),"[2]; 200 μM PN, 400 μM NADP+, 1 μM PdxI",5 ± 1.3%
same,rise of PLP levels,[9]; [18],1.5 fold
